Measured values reported in the NIST ThermoML archive (doi:10.1016/j.fluid.2005.07.009).

What was measured:
[1] = molar heat capacity at constant pressure; conditions: 101.33 kPa, Small sample (50 mg) DSC
[2] = Molar enthalpy of transition or fusion; conditions: Crystal; DSC

CCCCCCCCCCN [1-decanamine]
[1]
Conditions | molar heat capacity at constant pressure [J/K/mol]
260.31 K, Crystal | 259.31
260.64 K, Crystal | 260.44
260.93 K, Crystal | 261.21
261.39 K, Crystal | 261.42
261.62 K, Crystal | 262.06
261.99 K, Crystal | 263.4
262.32 K, Crystal | 263.89
262.67 K, Crystal | 264.94
262.94 K, Crystal | 265.77
263.34 K, Crystal | 266.8
263.61 K, Crystal | 266.97
263.92 K, Crystal | 267.74
264.39 K, Crystal | 269.3
264.62 K, Crystal | 269.42
264.91 K, Crystal | 270.38
265.33 K, Crystal | 271.97
265.61 K, Crystal | 272.3
265.95 K, Crystal | 273.03
266.38 K, Crystal | 274.58
266.67 K, Crystal | 275.4
266.96 K, Crystal | 275.97
267.36 K, Crystal | 277.46
267.62 K, Crystal | 278.39
267.94 K, Crystal | 279.27
268.33 K, Crystal | 280.36
268.66 K, Crystal | 281.82
268.95 K, Crystal | 282.79
269.32 K, Crystal | 283.64
269.63 K, Crystal | 284.29
270.21 K, Crystal | 285.94
298.11 K, Liquid | 372.55
299.64 K, Liquid | 373.35
300.38 K, Liquid | 373.78
301.27 K, Liquid | 373.82
302.37 K, Liquid | 374.25
303.41 K, Liquid | 374.33
304.05 K, Liquid | 374.34
305.25 K, Liquid | 374.39
306.31 K, Liquid | 374.86
307.28 K, Liquid | 375.02
308.4 K, Liquid | 375.08
309.24 K, Liquid | 375.35
310.32 K, Liquid | 375.6
311.09 K, Liquid | 375.9
312.37 K, Liquid | 376.23
313.36 K, Liquid | 376.31
314.28 K, Liquid | 376.34
315.23 K, Liquid | 376.91
316.39 K, Liquid | 377.46
317.53 K, Liquid | 377.49
318.23 K, Liquid | 377.55
319.33 K, Liquid | 377.88
320.09 K, Liquid | 377.93
321.19 K, Liquid | 377.99
322.08 K, Liquid | 378.21
323.45 K, Liquid | 378.65
324.17 K, Liquid | 379.09
325 K, Liquid | 379.38
326.2 K, Liquid | 379.69
327.09 K, Liquid | 379.8
328.21 K, Liquid | 379.88
329.22 K, Liquid | 380.68
330.18 K, Liquid | 380.93
331.23 K, Liquid | 381.19
332.31 K, Liquid | 381.58
333.26 K, Liquid | 382.32

Conditions | Molar enthalpy of transition or fusion [kJ/mol]
[2] | 42.7
